Read-outs that look alike come from different tables or passages of the source.
System: IRF3
Assay: IRF3 activation assay in THP-1 Dual cells
Type: cell-based
Details: Homo sapiens, read-out: THP1 IRF3 EC50
Summary of the method: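 THP-1 Dual cells (100,000/well) were treated with serially diluted compound for 24 h at 37° C, 5% CO2. IRF3 reporter activity in supernatant was read with QUANTI-Blue as absorbance at 620-655 nm after 2 h, with untreated cells as negative control. EC50 came from fitting percent control activity against log concentration.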

| SMILES | EC50 (THP-1, Table 4A) | EC50 (THP-1, Table 4C) | EC50 (THP-1, Table 4B) |
| --- | --- | --- | --- |
| CCn1nc(C)cc1-c1ncc2c3cc(C(N)=O)cc(OCCCO)c3n(C/C=C/Cn3c4nc(-c5cc(C)nn5CC)ncc4c4cc(C(N)=O)cc(OCCCO)c43)c2n1 [Example S65, (E)-9,9′-(but-2-ene-1,4-diyl)bis(2-(1-ethyl-3-methyl-1H-pyrazol-5-yl)-8-(3-hydroxypropoxy)-9H-pyrimido[4,5-b]indole-6-carboxamide)] | ≤ 0.1 µM | – | – |
| CCn1nc(C)cc1C(=O)Nc1nc2cc(C(N)=O)cc(OC)c2n1C/C=C/Cn1c2nc(-c3cc(C)nn3CC)ncc2c2cc(C(N)=O)cc(OCCC3CCN(C(=O)OCC(=O)O)CC3)c21 [Example S61] | – | 0.05 to 0.2 µM | – |
| CCc1nn(C)cc1-c1ncc2c3cc(C(N)=O)ccc3n(C/C=C/Cn3c(NC(=O)c4cc(C)nn4CC)nc4cc(C(N)=O)cc(C)c43)c2n1 [Example S8, (E)-9-(4-(5-carbamoyl-2-(1-ethyl-3-methyl-1H-pyrazole-5-carboxamido)-7-methyl-1H-benzo[d]imidazol-1-yl)but-2-enyl)-2-(3-ethyl-1-methyl-1H-pyrazol-4-yl)-9H-pyrimido[4,5-b]indole-6-carboxamide] | 0.5 to 1 µM | 0.5 to 1 µM | < 1 µM |
| CCn1nc(C)cc1C(=O)Nc1nc2cc(C(N)=O)cc(C)c2n1C/C=C/Cn1c2nc(-c3cc(C)nn3CC)ncc2c2cc(C(N)=O)cc(OCCCO)c21 [Example S13, (E)-9-(4-(5-carbamoyl-2-(1-ethyl-3-methyl-1H-pyrazole-5-carboxamido)-7-methyl-1H-benzo[d]imidazol-1-yl)but-2-enyl)-2-(1-ethyl-3-methyl-1H-pyrazol-5-yl)-8-(3-hydroxypropoxy)-9H-pyrimido[4,5-b]indole-6-carboxamide] | ≤ 0.1 µM | ≤ 0.05 µM | < 0.2 µM |
| CCn1nc(C)cc1C(=O)Nc1nc2cc(C(N)=O)cc(C)c2n1C/C=C/Cn1c2ccc(C(N)=O)cc2c2cnc(-c3ccnn3CC)nc21 [Example S7, (E)-9-(4-(5-carbamoyl-2-(1-ethyl-3-methyl-1H-pyrazole-5-carboxamido)-7-methyl-1H-benzo[d]imidazol-1-yl)but-2-enyl)-2-(1-ethyl-1H-pyrazol-5-yl)-9H-pyrimido[4,5-b]indole-6-carboxamide] | 0.1 to 0.5 µM | 0.2 to 0.5 µM | < 1 µM |
| CCn1nc(C)cc1C(=O)Nc1nc2cc(C(N)=O)cc(C)c2n1C/C=C/Cn1c2ccc(C(N)=O)cc2c2ccc(-c3cc(C)nn3CC)nc21 [Example S5, (E)-9-(4-(5-carbamoyl-2-(1-ethyl-3-methyl-1H-pyrazole-5-carboxamido)-7-methyl-1H-benzo[d]imidazol-1-yl)but-2-en-1-yl)-2-(1-ethyl-3-methyl-1H-pyrazol-5-yl)-9H-pyrido[2,3-b]indole-6-carboxamide] | ≤ 0.1 µM | 0.05 to 0.2 µM | < 1 µM |
| CCn1nc(C)cc1C(=O)Nc1nc2cc(C(N)=O)cc(OCCCN3CCN(C)CC3)c2n1C/C=C/Cn1c2nc(-c3cc(C)nn3CC)ncc2c2cc(C(N)=O)cc(OCCCOC)c21 [Example S36, (E)-9-(4-(5-carbamoyl-2-(1-ethyl-3-methyl-1H-pyrazole-5-carboxamido)-7-(3-(4-methylpiperazin-1-yl)propoxy)-1H-benzo[d]imidazol-1-yl)but-2-en-1-yl)-2-(1-ethyl-3-methyl-1H-pyrazol-5-yl)-8-(3-methoxypropoxy)-9H-pyrimido[4,5-b]indole-6-carboxamide] | – | 0.05 to 0.2 µM | – |
| CCn1nc(C)cc1C(=O)Nc1nc2cc(C(N)=O)cc(OC(C)C)c2n1C/C=C/Cn1c2nc(-c3cc(C)nn3CC)ncc2c2cc(C(N)=O)cc(OCCCOC)c21 [Example S35, (E)-9-(4-(5-carbamoyl-2-(1-ethyl-3-methyl-1H-pyrazole-5-carboxamido)-7-isopropoxy-1H-benzo[d]imidazol-1-yl)but-2-en-1-yl)-2-(1-ethyl-3-methyl-1H-pyrazol-5-yl)-8-(3-methoxypropoxy)-9H-pyrimido[4,5-b]indole-6-carboxamide] | – | 0.05 to 0.2 µM | – |
| CCn1nc(C)cc1C(=O)Nc1nc2cc(C(N)=O)cc(OCCCO)c2n1C/C=C/Cn1c2nc(-c3cc(C)nn3CC)ncc2c2cc(C(N)=O)cc(OCCCOC)c21 [Example S22, (E)-9-(4-(5-carbamoyl-2-(1-ethyl-3-methyl-1H-pyrazole-5-carboxamido)-7-(3-hydroxypropoxy)-1H-benzo[d]imidazol-1-yl)but-2-en-1-yl)-2-(1-ethyl-3-methyl-1H-pyrazol-5-yl)-8-(3-methoxypropoxy)-9H-pyrimido[4,5-b]indole-6-carboxamide] | ≤ 0.1 µM | ≤ 0.05 µM | < 0.2 µM |
| CCn1nc(C)cc1C(=O)Nc1nc2cc(C(N)=O)cc(OCCCNC(=O)NCC(=O)O)c2n1C/C=C/Cn1c2nc(-c3cc(C)nn3CC)ncc2c2cc(C(N)=O)cc(OCCCOC)c21 [Example S46, (E)-((3-((5-carbamoyl-1-(4-(6-carbamoyl-2-(1-ethyl-3-methyl-1H-pyrazol-5-yl)-8-(3-methoxypropoxy)-9H-pyrimido[4,5-b]indol-9-yl)but-2-en-1-yl)-2-(1-ethyl-3-methyl-1H-pyrazole-5-carboxamido)-1H-benzo[d]imidazol-7-yl)oxy)propyl)carbamoyl)glycine] | – | ≤ 0.05 µM | – |
| CCn1nc(C)cc1C(=O)Nc1nc2cc(C(N)=O)cc(C)c2n1C/C=C/Cn1c(NC(=O)c2cc(C)nn2CC)nc2cc(C(N)=O)c3ccoc3c21 [Example S31, (E)-1-(4-(5-carbamoyl-2-(1-ethyl-3-methyl-1H-pyrazole-5-carboxamido)-7-methyl-1H-benzo[d]imidazol-1-yl)but-2-en-1-yl)-2-(1-ethyl-3-methyl-1H-pyrazole-5-carboxamido)-1H-benzofuro[6,7-d]imidazole-5-carboxamide] | ≤ 0.1 µM | – | – |
| CCn1nc(C)cc1C(=O)Nc1nc2cc(C(N)=O)cc(OCCCOC(=O)c3cc(C)nn3CC)c2n1C/C=C/Cn1c2nc(-c3cc(C)nn3CC)ncc2c2cc(C(N)=O)cc(OCCCN3CCOCC3)c21 [Example S19, (E)-3-((5-carbamoyl-1-(4-(6-carbamoyl-2-(1-ethyl-3-methyl-1H-pyrazol-5-yl)-8-(3-morpholinopropoxy)-9H-pyrimido[4,5-b]indol-9-yl)but-2-en-1-yl)-2-(1-ethyl-3-methyl-1H-pyrazole-5-carboxamido)-1H-benzo[d]imidazol-7-yl)oxy)propyl 1-ethyl-3-methyl-1H-pyrazole-5-carboxylate] | ≤ 0.1 µM | ≤ 0.05 µM | < 0.2 µM |
| CCn1nc(C)cc1C(=O)Nc1nc2cc(C(N)=O)cc(OCCCOC)c2n1C/C=C/Cn1c2nc(-c3cc(C)nn3CC)ncc2c2cc(C(N)=O)cc(OCCCOC(=O)NCCC(=O)O)c21 [Example S57, (E)-3-((3-(6-carbamoyl-9-(4-(5-carbamoyl-2-(1-ethyl-3-methyl-1H-pyrazole-5-carboxamido)-7-(3-methoxypropoxy)-1H-benzo[d]imidazol-1-yl)but-2-enyl)-2-(1-ethyl-3-methyl-1H-pyrazol-5-yl)-9H-pyrimido[4,5-b]indol-8-yloxy)propoxy)carbonylamino)propanoic acid] | – | 0.05 to 0.2 µM | – |
| CCn1nc(C)cc1C(=O)Nc1nc2cc(C(N)=O)cc(OC)c2n1C/C=C/Cn1c2nc(-c3cc(C)nn3CC)ncc2c2cc(C(N)=O)cc(OCCCNC(=O)CCCC(=O)O)c21 [Example S51, (E)-5-(3-(6-carbamoyl-9-(4-(5-carbamoyl-2-(1-ethyl-3-methyl-1H-pyrazole-5-carboxamido)-7-methoxy-1H-benzo[d]imidazol-1-yl)but-2-enyl)-2-(1-ethyl-3-methyl-1H-pyrazol-5-yl)-9H-pyrimido[4,5-b]indol-8-yloxy)propylamino)-5-oxopentanoic acid] | – | ≤ 0.05 µM | – |
| CCn1nc(C)cc1C(=O)Nc1nc2cc(C(N)=O)cc(OCCCNC(=O)CCCC(=O)O)c2n1C/C=C/Cn1c2nc(-c3cc(C)nn3CC)ncc2c2cc(C(N)=O)cc(OCCCOC)c21 [Example S39, (E)-5-((3-((5-carbamoyl-1-(4-(6-carbamoyl-2-(1-ethyl-3-methyl-1H-pyrazol-5-yl)-8-(3-methoxypropoxy)-9H-pyrimido[4,5-b]indol-9-yl)but-2-en-1-yl)-2-(1-ethyl-3-methyl-1H-pyrazole-5-carboxamido)-1H-benzo[d]imidazol-7-yl)oxy)propyl)amino)-5-oxopentanoic acid] | – | ≤ 0.05 µM | – |
| CCCn1nc(C)cc1-c1ncc2c3cc(C(N)=O)ccc3n(C/C=C/Cn3c(NC(=O)c4cc(C)nn4CC)nc4cc(C(N)=O)cc(C)c43)c2n1 [Example S6, (E)-9-(4-(5-carbamoyl-2-(1-ethyl-3-methyl-1H-pyrazole-5-carboxamido)-7-methyl-1H-benzo[d]imidazol-1-yl)but-2-enyl)-2-(3-methyl-1-propyl-1H-pyrazol-5-yl)-9 H-pyrimido[4,5-b]indole-6-carboxamide] | ≤ 0.1 µM | ≤ 0.05 µM | < 0.2 µM |
| CCn1nc(C)cc1C(=O)Nc1nc2cc(C(N)=O)cc(OC)c2n1C/C=C/Cn1c(NC(=O)c2cc(C)nn2CC)nc2cc(C(N)=O)cc(OCCCNC(C)=O)c21 [Example S33, (E)-7-(3-acetamidopropoxy)-1-(4-(5-carbamoyl-2-(1-ethyl-3-methyl-1H-pyrazole-5-carboxamido)-7-methoxy-1H-benzo[d]imidazol-1-yl)but-2-en-1-yl)-2-(1-ethyl-3-methyl-1H-pyrazole-5-carboxamido)-1H-benzo[d]imidazole-5-carboxamide] | ≤ 0.1 µM | – | – |
| CCn1nc(C)cc1C(=O)Nc1nc2cc(C(N)=O)cc(OCCCOC(=O)c3cc(C)nn3CC)c2n1C/C=C/Cn1c2nc(-c3cc(C)nn3CC)ncc2c2cc(C(N)=O)cc(OCCCOC)c21 [Example S21, (E)-3-((5-carbamoyl-1-(4-(6-carbamoyl-2-(1-ethyl-3-methyl-1H-pyrazol-5-yl)-8-(3-methoxypropoxy)-9H-pyrimido[4,5-b]indol-9-yl)but-2-en-1-yl)-2-(1-ethyl-3-methyl-1H-pyrazole-5-carboxamido)-1H-benzo[d]imidazol-7-yl)oxy)propyl 1-ethyl-3-methyl-1H-pyrazole-5-carboxylate] | ≤ 0.1 µM | ≤ 0.05 µM | < 0.2 µM |

Source: patent US11596692B1 (Incyte Corporation, priority 2018, dated 2023)
